Values quoted from earlier work, collected in US7584087B2, “Structure of protein kinase C theta” (Wyeth, priority 2004, dated 2009).

What was measured:
Conditions in all cases: result in words, from Meggio et al. 1995
[1] = system: mitogen-activated protein kinase (MAPK)
PKC isoforms = system: PKC isoforms
casein kinase 2 (CK2) = system: casein kinase 2 (CK2)
CSK = CSK (Homo sapiens, UniProt P41240)
casein kinase 1 (CK1) = system: casein kinase 1 (CK1)

CSK, sequence (P41240 whole entry, species assumed): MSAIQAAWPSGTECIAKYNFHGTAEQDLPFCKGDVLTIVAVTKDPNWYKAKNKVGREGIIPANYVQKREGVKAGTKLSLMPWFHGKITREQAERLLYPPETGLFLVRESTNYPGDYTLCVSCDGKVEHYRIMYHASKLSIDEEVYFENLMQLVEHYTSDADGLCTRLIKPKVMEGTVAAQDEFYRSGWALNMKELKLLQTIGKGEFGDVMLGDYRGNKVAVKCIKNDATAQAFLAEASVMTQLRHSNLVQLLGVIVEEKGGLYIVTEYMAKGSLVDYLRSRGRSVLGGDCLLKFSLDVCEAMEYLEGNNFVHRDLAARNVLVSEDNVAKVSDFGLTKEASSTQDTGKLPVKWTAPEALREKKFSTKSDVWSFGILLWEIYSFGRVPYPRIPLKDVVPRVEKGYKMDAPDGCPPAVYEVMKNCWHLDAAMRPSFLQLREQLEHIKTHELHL

CN[C@@H]1C[C@H]2O[C@@](C)([C@@H]1OC)n1c3ccccc3c3c4c(c5c6ccccc6n2c5c31)C(=O)NC4 [Staurosporine, staurosporine]
potency against mitogen-activated protein kinase (MAPK) [1]: micromolar | potency against PKC isoforms (PKC isoforms): low nanomolar | potency against casein kinase 2 (CK2) (casein kinase 2 (CK2)): micromolar | potency against CSK (CSK): micromolar | potency against casein kinase 1 (CK1) (casein kinase 1 (CK1)): micromolar
